Structures are written as SMILES.

In test [1] the test system is NIC-evoked [3H]DA release from rat striatal slices. Kind of test: Nicotine-evoked [3H]dopamine release assay, superfused rat striatal slices. It is filed as cell-based. The note with it: 100 nM analog superfused 60 minutes prior to NIC (10 μM), percent of that in the absence of analog. The method, then:
Rat striatal slices (500 μm thickness, 6-8 mg wet weight) were incubated for 30 minutes in Krebs buffer (118 mM NaCl, 4.7 mM KCl, 1.2 mM MgCl2, 1.0 mM NaH2PO4, 1.3 mM CaCl2, 11.1 mM glucose, 25 mM NaHCO3, 0.11 mM L-ascorbic acid and 0.004 mM disodium EDTA; pH 7.4, and saturated with 95% O2/5% CO2) in a metabolic shaker at 34° C. Slices were rinsed with 15 mL of fresh buffer and incubated for an additional 30 minutes in fresh buffer containing 0.1 μM [^3H]dopamine (DA; 6 slices/3 mL). Subsequently, slices were rinsed with 15 mL of fresh buffer and transferred to a glass superfusion chamber. Slices were superfused (1.0 mL/min) for 60 minutes with Krebs buffer containing nomifensine (10 μM) and pargyline (10 μM) and maintained at 34° C., pH 7.4 with continual aeration (95% O2/5% CO2). Two five minute samples (5 mL each) were collected to determine basal outflow of [^3H]DA. Analogs were added to the superfusion buffer after the collection of the second sample and remained in the buffer until 12 consecutive five minute samples were collected. Subsequently, S-(−)-nicotine (10 μM) was added to the buffer and an additional 12 consecutive five minute samples were collected. At the end of the experiment, each slice was solubilized and the [^3H] content of the tissue determined.
Radioactivity in the superfusate and tissue samples were determined by liquid scintillation spectroscopy. Fractional release for tritium collected in each sample was divided by the total tritium present at the time of sample collection and was expressed as a percentage of total tritium. Basal [^3H] outflow was calculated from the average of the tritium collected in the two five-minute samples just before addition of the analog. The sum of the increase in collected tritium resulting from either exposure to the test compound or exposure to S-(−)-nicotine in the absence cod presence of the test compound equaled total [^3H] overflow. [^3H] Overflow was calculated by subtracting the [^3H] outflow during an equivalent period of prestimulation from the values in samples collected during and after drug exposure. Inasmuch as the radiolabelled compounds were not separated and identified, the tritium in the superfusate is referred to as either [^3H] outflow or [^3H] overflow, rather than [^3H]DA. [^3H] Overflow primarily represents [^3H]DA in the presence of nomifesine and pargyline in the superfusion buffer. […]
Analogs were also evaluated for their ability to inhibit NIC evoked [^3H]DA release. In these experiments, the striatal slices were superfused for 60 minutes with 100 nM concentration of the analogs prior to NIC (10 μM) exposure. Antagonist activity was evaluated by comparing the NIC-evoked [^3H] overflow in the absence and presence of the analogs. The relative order of potency of the analogs for inhibition of NIC-evoked [^3H]DA release from rat striatal slices is illustrated in Table 1.
Data are % inhibition at 100 nM concentration of analog for at least 1-3 independent experiments. Specific binding in the [^3H]NIC binding assay is calculated at the difference between the total binding of [^3H]NIC and nonspecific binding in the presence of 10 μM cold nicotine. Specific binding for the [^3H]MLA binding assay is calculated as the difference between the total binding of 2.5 nM [^3H]MLA to the receptors alone and its nonspecific binding in the presence of 1 μM cold MLA. Analog-induced inhibition of nicotine-evoked [^3H]DA release is calculated as a percent of that in the absence of analog.

Test [2] has as its target T1, α7 nicotinic receptor subtype expressed in Xenopus oocytes (Rattus norvegicus, UniProt Q05941).
T1 construct: expressed in transfected cells; host or cells: Xenopus laevis oocytes injected with subunit cRNA
Kind of test: Inhibition of ACh evoked current through nicotinic receptors expressed in Xenopus oocytes (α7). The note with it: co-application with acetylcholine; compared with α4β2, α3β2, α3β4; FIGS. 1-3. The class given is cell-based. The method, then:
Rat nicotinic receptor cDNAs clones were linearized and purified, and RNA transcripts were prepared in vitro using the appropriate mMessage mMachine kit. Mature (>9 cm) female Xenopus laevis African toads (Nasco, Ft. Atkinson, Wis.), housed in the Division of Lab Animal Resources at the University of Florida were used as a source of oocytes. Prior to surgery, frogs were anesthetized by placing the animal in a 1.5 g/L solution of MS222 for 30 minutes. Oocytes were removed from an incision made in the abdomen. In order to remove the follicular cell layer, harvested oocytes were treated with 1.25 mg/mL collagenase for 2 hours at room temperature in calcium-free Barth's solution (88 mM NaCl, 1 mM KCl, 2.38 mM NaHCO3, 0.82 mM MgSO4, 15 mM HEPES, pH 7.6, 0.1 mg/mL gentamicin sulfate). Subsequently, stage 5 oocytes were isolated and injected with 5-20 ng in 50 nL each of the appropriate subunit cRNAs. Recordings were made 2 to 15 days after injection.
Electrophysiology experiments were conducted using OpusXpress 6000A (Axon instruments, Union City, Calif.), or manual oocyte two-electrode voltage-clamp systems as previously reported (Stokes et al., 2004). […]
Each oocyte received two initial control applications of ACh, then a nicotine or analog application, and then a follow-up control application of ACh. […] Responses to each nicotine or analog application were calculated relative to the preceding ACh control responses in order to normalize the data, compensating for the varying levels of channel expression among the oocytes. […] Responses for α7 receptors were calculated as net charge (Papke et al., 2002). For subtypes other than α7, responses were calculated from the peak current amplitudes. Means and standard errors (SEM) were calculated from the normalized responses of at least four oocytes for each drug concentration. […]
For concentration-response relations, data derived from net-charge analyses were plotted using Kaleidagraph 3.0.2 (Abelbeck Software; Reading, Pa.) and curves were generated from the Hill equation […]

T1 sequence (Q05941 23-502): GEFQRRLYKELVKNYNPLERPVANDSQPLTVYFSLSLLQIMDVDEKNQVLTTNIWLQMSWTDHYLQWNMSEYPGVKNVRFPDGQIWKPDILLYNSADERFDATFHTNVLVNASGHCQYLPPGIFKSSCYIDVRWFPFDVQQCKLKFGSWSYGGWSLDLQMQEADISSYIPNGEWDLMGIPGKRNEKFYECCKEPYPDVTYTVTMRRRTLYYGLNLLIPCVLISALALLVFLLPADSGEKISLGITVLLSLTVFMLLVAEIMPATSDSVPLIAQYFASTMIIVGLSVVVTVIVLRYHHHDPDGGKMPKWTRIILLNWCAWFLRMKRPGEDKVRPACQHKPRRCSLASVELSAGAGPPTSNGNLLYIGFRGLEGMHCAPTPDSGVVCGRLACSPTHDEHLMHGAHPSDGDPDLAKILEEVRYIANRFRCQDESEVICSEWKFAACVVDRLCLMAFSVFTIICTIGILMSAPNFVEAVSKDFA

With `CCCCc1ccc[n+](CCCC#Cc2cc(C#CCCC[n+]3cccc(CCCC)c3)cc(C#CCCC[n+]3cccc(CCCC)c3)c2)c1` [GZ551A, 1,3,5-tris-[5-(3-butyl-pyridinium)-pent-1-ynyl]-benzene tribromide], in test [1], testing at 0.1 µM gave an inhibition of 52%. For the same compound, the “inhibition of ACh response at α7 nicotinic receptor subtype (concentration-response, in words)” value (shortened to “inhibition of ACh response”) in test [2] is “potent and selective inhibitor”.

With `CN1CCC[C@H]1c1ccc[n+](CCCC#Cc2cc(C#CCCC[n+]3cccc([C@@H]4CCCN4C)c3)cc(C#CCCC[n+]3cccc([C@@H]4CCCN4C)c3)c2)c1` [GZ551B, 1,3,5-tris-{5-[3-(1-methyl-2-S-pyrrolidinyl)pyridinium]-pent-1-ynyl}-benzene tribromide], in test [1], at 0.1 µM the inhibition was 63%. Moreover, in test [2], the “inhibition of ACh response” value is “most potent as an inhibitor of the α7 nicotinic receptor subtype, but was not selective”.

In the case of `CN1CCC[C@H]1c1ccc[n+](CCCCCc2cc(CCCCC[n+]3cccc([C@@H]4CCCN4C)c3)cc(CCCCC[n+]3cccc([C@@H]4CCCN4C)c3)c2)c1` [GZ558C, 1,3,5-tris-{5-[3-(1-methyl-2-S-pyrrolidinyl)pyridinium]-pentyl}-benzene tribromide], the inhibition (in general, the percentage by which the read-out fell short of the control) at 0.1 µM in test [1] came out at 35%. In addition, the “inhibition of ACh response” value in test [2] was “potent and selective inhibitor”.

Values taken from patent publication US8940774B2, “Tris-Quaternary Ammonium Salts and Methods for Modulating Neuronal Nicotinic Acetylcholine Receptors” (University of Kentucky Research Foundation, priority 2005, dated 2015).
